Assay results from patent US20250197387A1, “BCL-XL DEGRADERS AND USES THEREOF” (Kymera Therapeutics, Inc., priority 2021, published 2025).

Biological target: T1, BCL-XL (Homo sapiens, UniProt Q07817)
T1 construct: endogenous in cells; host or cells: MOLT-4
Assay: Bcl-xL ELISA degradation in MOLT-4 cells, 6 h
Assay type: cell-based
Conditions: for DC50: read-out: Bcl-xL ELISA in MOLT-4 degradation 6 h: Mean external-Abs DC50
Protocol: The letter codes for BCL-XL DC50 include: A (<0.01 μM); B (0.01-0.1 μM); C (>[…]); D (>0.5-1.0 μM); and E (>1.0 μM). The letter codes for Dmax % include A (>75%); B (50 to 75%); C (<50%).

T1 sequence (Q07817 whole entry): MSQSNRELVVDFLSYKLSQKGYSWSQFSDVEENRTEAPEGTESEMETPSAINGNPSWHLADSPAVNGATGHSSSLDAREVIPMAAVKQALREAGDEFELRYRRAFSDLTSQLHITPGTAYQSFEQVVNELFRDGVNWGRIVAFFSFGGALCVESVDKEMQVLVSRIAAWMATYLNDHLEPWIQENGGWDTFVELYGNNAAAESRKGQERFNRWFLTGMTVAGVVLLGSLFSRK

C#Cc1ccc(CNC(=O)[C@@H]2C[C@@H](O)CN2C(=O)[C@@H](NC(=O)C2CCN(c3ccc(S(=O)(=O)NC(=O)c4nc(N5CCc6cccc(C(=O)Nc7nc8ccccc8s7)c6C5)ccc4-c4cnn(CC5CCCCC5)c4C)cc3)CC2)C(C)(C)C)c(OC)c1 [I-254]
Dmax: > 75% | DC50: < 10 nM

C#Cc1ccc(CNC(=O)[C@@H]2C[C@@H](O)CN2C(=O)[C@@H](c2cc(N3CCN(c4ccc(S(=O)(=O)NC(=O)c5nc(N6CCc7cccc(C(=O)Nc8nc9ccccc9s8)c7C6)ccc5-c5cnn(CC6CCCCC6)c5C)cc4)CC3)no2)C(C)C)cc1 [I-262]
Dmax: > 75% | DC50: < 10 nM

Cc1ncsc1-c1ccc(CNC(=O)[C@@H]2C[C@@H](O)CN2C(=O)[C@@H](NC(=O)C2CCN(c3ccc(S(=O)(=O)NC(=O)c4nc(N5CCc6cccc(C(=O)Nc7nc8ccccc8s7)c6C5)ccc4-c4cnn(CC5CCCCC5)c4C)cc3)CC2)C(C)(C)C)cc1 [I-252]
Dmax: > 75% | DC50: 10 to 100 nM

Cc1ncsc1-c1ccc([C@H](C)NC(=O)[C@@H]2C[C@@H](O)CN2C(=O)[C@@H](NC(=O)C2CCN(c3ccc(S(=O)(=O)NC(=O)c4nc(N5CCc6cccc(C(=O)Nc7nc8ccccc8s7)c6C5)ccc4-c4cnn(CC5CCCCC5)c4C)cc3Cl)CC2)C(C)(C)C)cc1 [I-274]
Dmax: 50 to 75% | DC50: 10 to 100 nM

C#Cc1ccc(CNC(=O)[C@@H]2C[C@@H](O)CN2C(=O)[C@@H](NC(=O)C2CCN(c3ccc(S(=O)(=O)NC(=O)c4nc(N5CCc6cccc(C(=O)Nc7nc8ccccc8s7)c6C5)ccc4-c4cnn(CC5CCCCC5)c4C)cc3)CC2)C(C)(C)C)c(OCCO)c1 [I-259]
Dmax: > 75% | DC50: 10 to 100 nM

C#Cc1ccc([C@H](C)NC(=O)[C@@H]2C[C@@H](O)CN2C(=O)[C@@H](NC(=O)C2CCN(c3ccc(S(=O)(=O)NC(=O)c4nc(N5CCc6cccc(C(=O)Nc7nc8ccccc8s7)c6C5)ccc4-c4cnn(CC5CCCCC5)c4C)cc3)CC2)C(C)(C)C)cc1 [I-253]
Dmax: > 75% | DC50: < 10 nM

Cc1ncsc1-c1ccc([C@H](C)NC(=O)[C@@H]2C[C@@H](O)CN2C(=O)[C@@H](NC(=O)N2CCN(CC#Cc3ccc(OCCCc4sc(N5CCc6cccc(C(=O)Nc7nc8ccccc8s7)c6C5)nc4C(=O)O)c(F)c3)CC2)C(C)(C)C)cc1 [I-73]
Dmax: < 50%

Cc1ncsc1-c1ccc([C@H](C)NC(=O)[C@@H]2C[C@@H](O)CN2C(=O)[C@@H](NC(=O)N2CCC(N3CCC(S(=O)(=O)NC(=O)c4nc(N5CCc6cccc(C(=O)Nc7nc8ccccc8s7)c6C5)ccc4-c4cnn(CC5CCCCC5)c4C)CC3)CC2)C(C)(C)C)cc1 [I-258]
Dmax: 50 to 75% | DC50: 100 to 500 nM

C#Cc1ccc([C@H](CO)NC(=O)[C@@H]2C[C@@H](O)CN2C(=O)[C@@H](NC(=O)C2CCN(c3ccc(S(=O)(=O)NC(=O)c4nc(N(C)c5cc(C)c(Nc6nc7ccccc7s6)nn5)ccc4-c4cnn(CC5(CC)CC6CC(C)CC(C6)C5)c4C)cc3)CC2)C(C)(C)C)cc1 (some centres unmarked) [I-245]
Dmax: > 75% | DC50: 10 to 100 nM

Cc1ncsc1-c1ccc([C@H](C)NC(=O)[C@@H]2C[C@@H](O)CN2C(=O)C(c2cc(N3CC(CN4CCC(NC(=O)c5nc(N6CCc7cccc(C(=O)Nc8nc9ccccc9s8)c7C6)ccc5-c5cnn(CC6CCCCC6)c5C)CC4)C3)no2)C(C)C)cc1 (some centres unmarked) [I-239]
Dmax: < 50%

Cc1cc([C@@H](C(=O)N2C[C@H](O)C[C@H]2C(=O)NCc2ccc(-c3scnc3C)cc2OCCN(C)C2CCN(C(=O)c3nc(N4CCc5cccc(C(=O)Nc6nc7ccccc7s6)c5C4)ccc3-c3cnn(CC4CCCCC4)c3C)CC2)C(C)C)on1 [I-266]
Dmax: 50 to 75% | DC50: 100 to 500 nM

Cc1ncsc1-c1ccc([C@H](C)NC(=O)[C@@H]2C[C@@H](O)CN2C(=O)[C@@H](NC(=O)C2CCN(c3ncc(S(=O)(=O)NC(=O)c4nc(N5CCc6cccc(C(=O)Nc7nc8ccccc8s7)c6C5)ccc4-c4cnn(CC5CCCCC5)c4C)cn3)CC2)C(C)(C)C)cc1 [I-250]
Dmax: > 75% | DC50: 10 to 100 nM

C#Cc1ccc([C@H](CO)NC(=O)[C@@H]2C[C@@H](O)CN2C(=O)C(c2cc(OC3CCN(CCCS(=O)(=O)NC(=O)c4nc(N5CCc6cccc(C(=O)Nc7nc8ccccc8s7)c6C5)ccc4-c4cnn(CC5CCCCC5)c4C)CC3)no2)C(C)C)cc1 (some centres unmarked) [I-228]
Dmax: 50 to 75% | DC50: 100 to 500 nM

Cc1ncsc1-c1ccc([C@H](C)NC(=O)[C@@H]2C[C@@H](O)CN2C(=O)[C@@H](NC(=O)C2CC3CCC(C2)N3c2ccc(S(=O)(=O)NC(=O)c3nc(N4CCc5cccc(C(=O)Nc6nc7ccccc7s6)c5C4)ccc3-c3cnn(CC4CCCCC4)c3C)cc2)C(C)(C)C)cc1 (some centres unmarked) [I-278]
Dmax: > 75% | DC50: 10 to 100 nM

Cc1ncsc1-c1ccc([C@H](C)NC(=O)[C@@H]2C[C@@H](O)CN2C(=O)[C@@H](NC(=O)C2CCN(c3ccc(S(=O)(=O)NC(=O)c4nc(N5CCc6cccc(C(=O)Nc7nc8ccccc8s7)c6C5)ccc4-c4cnn(CC(C)C)c4C)cc3)CC2)C(C)(C)C)cc1 [I-240]
Dmax: > 75% | DC50: 10 to 100 nM

Cc1cc([C@@H](C(=O)N2C[C@H](O)C[C@H]2C(=O)NCc2ccc(-c3scnc3C)cc2OCCCN2CCN(C(=O)c3nc(N4CCc5cccc(C(=O)Nc6nc7ccccc7s6)c5C4)ccc3-c3cnn(CC4CCCCC4)c3C)CC2)C(C)C)on1 [I-268]
Dmax: > 75% | DC50: < 10 nM

Cc1ncsc1-c1ccc([C@H](C)NC(=O)[C@@H]2C[C@@H](O)CN2C(=O)[C@@H](NC(=O)C2CCN(c3ccc(S(=O)(=O)NC(=O)c4nc(N5CCc6cccc(C(=O)Nc7nc8ccccc8s7)c6C5)ccc4-c4cnn(CC5CCOCC5)c4C)cc3)CC2)C(C)(C)C)cc1 [I-260]
Dmax: 50 to 75% | DC50: 100 to 500 nM

Cc1ncsc1-c1ccc([C@H](C)NC(=O)[C@@H]2C[C@@H](O)CN2C(=O)[C@@H](NC(=O)CCCCN(C)CCCS(=O)(=O)NC(=O)c2nc(N3CCc4cccc(C(=O)Nc5nc6ccccc6s5)c4C3)ccc2-c2cnn(CC3CCCCC3)c2C)C(C)(C)C)cc1 [I-232]
Dmax: 50 to 75% | DC50: 100 to 500 nM

Cc1ncsc1-c1ccc([C@H](C)NC(=O)[C@@H]2C[C@@H](O)CN2C(=O)[C@@H](NC(=O)C2CCN(c3ccc(S(=O)(=O)NC(=O)c4nc(N5CCc6cccc(C(=O)Nc7nc8ccccc8s7)c6C5)ccc4-c4cnn(CC5(CCC(=O)O)CCCCC5)c4C)cc3)CC2)C(C)(C)C)cc1 [I-255]
Dmax: 50 to 75% | DC50: 100 to 500 nM

Cc1cc(C(C(=O)N2C[C@H](O)C[C@H]2C(=O)NCc2ccc(-c3scnc3C)cc2OCCN2CCN(CC[C@H](CSc3ccccc3)Nc3ccc(S(=O)(=O)NC(=O)c4ccc(N5CCN(CC6=C(c7ccc(Cl)cc7)CCC(C)(C)C6)CC5)cc4)cc3S(=O)(=O)C(F)(F)F)CC2)C(C)C)on1 (some centres unmarked) [I-282]
Dmax: 50 to 75% | DC50: 100 to 500 nM

Cc1ncsc1-c1ccc(CNC(=O)N2C[C@@H](O)CC2C(=O)[C@@H](NC(=O)C2(F)CC2)C(C)(C)C)c(O[C@H]2C[C@H](N3CCC(NC(=O)c4nc(N5CCc6cccc(C(=O)Nc7nc8ccccc8s7)c6C5)ccc4-c4cnn(CC5CCCCC5)c4C)CC3)C2)c1 (some centres unmarked) [I-269]
Dmax: < 50% | DC50: > 1000 nM

Cc1ncsc1-c1ccc([C@H](C)NC(=O)[C@@H]2C[C@@H](O)CN2C(=O)C(c2cc(OC3CCN(CCCCNC(=O)c4nc(N5CCc6cccc(C(=O)Nc7nc8ccccc8s7)c6C5)ccc4-c4cnn(CC5CCCCC5)c4C)CC3)no2)C(C)C)cc1 (some centres unmarked) [I-233]
Dmax: < 50% | DC50: > 1000 nM

Cc1ncsc1-c1ccc(CNC(=O)[C@@H]2C[C@@H](O)CN2C(=O)[C@@H](NC(=O)C2(F)CC2)C(C)(C)C)c(OC2CCN(CC3CCN(C(=O)c4nc(N5CCc6cccc(C(=O)Nc7nc8ccccc8s7)c6C5)ccc4-c4cnn(CC5CCCCC5)c4C)CC3)CC2)c1 [I-227]
Dmax: < 50% | DC50: > 1000 nM

Cc1cc([C@@H](C(=O)N2C[C@H](O)C[C@H]2C(=O)NCc2ccc(-c3scnc3C)cc2OCCN2CCN(C(=O)c3nc(N4CCc5cccc(C(=O)Nc6nc7ccccc7s6)c5C4)ccc3-c3cnn(CC4CCCCC4)c3C)CC2)C(C)C)on1 [I-267]
Dmax: < 50% | DC50: > 1000 nM

Cc1ncsc1-c1ccc([C@H](C)NC(=O)[C@@H]2C[C@@H](O)CN2C(=O)[C@@H](NC(=O)C2CCN(c3ccc(S(=O)(=O)NC(=O)c4nc(N5CCc6cccc(C(=O)Nc7nc8ccccc8s7)c6C5)ccc4-c4cnn(CC5(CCCN6CCN(C)CC6)CCCCC5)c4C)cc3)CC2)C(C)(C)C)cc1 [I-256]
Dmax: 50 to 75% | DC50: 100 to 500 nM

C#Cc1ccc(CNC(=O)[C@@H]2C[C@@H](O)CN2C(=O)[C@@H](c2cc(N3CCN(c4ccc(S(=O)(=O)NC(=O)c5nc(N6CCc7cccc(C(=O)Nc8nc9ccccc9s8)c7C6)ccc5-c5cnn(CC6CCCCC6)c5C)cc4)CC3)no2)C(C)C)c(OC)c1 [I-263]
Dmax: 50 to 75% | DC50: 10 to 100 nM

Cc1cc(N(C)c2ccc(-c3cnn(CC4CCCCC4)c3C)c(C(=O)NS(=O)(=O)c3ccc(N4CCC(C(=O)N[C@H](C(=O)N5C[C@H](O)C[C@H]5C(=O)N[C@@H](C)c5ccc(-c6scnc6C)cc5)C(C)(C)C)CC4)cc3)n2)nnc1Nc1nc2ccccc2s1 [I-244]
Dmax: > 75% | DC50: 10 to 100 nM

Cc1ncsc1-c1ccc([C@H](C)NC(=O)[C@@H]2C[C@@H](O)CN2C(=O)[C@H](c2cc(N3CC4(CN(c5ccc(S(=O)(=O)NC(=O)c6nc(N7CCc8cccc(C(=O)Nc9nc%10ccccc%10s9)c8C7)ccc6-c6cnn(CC7CCCCC7)c6C)cc5)C4)C3)no2)C(C)C)cc1 [I-225]
Dmax: 50 to 75% | DC50: 10 to 100 nM

Cc1ncsc1-c1ccc([C@H](C)NC(=O)[C@@H]2C[C@@H](O)CN2C(=O)[C@@H](NC(=O)N2CCC(N3CCN(C(=O)c4nc(N5CCc6cccc(C(=O)Nc7nc8ccccc8s7)c6C5)ccc4-c4cnn(CC5CCCCC5)c4C)CC3)CC2)C(C)(C)C)cc1 [I-247]
Dmax: < 50% | DC50: > 1000 nM

Cc1ncsc1-c1ccc([C@H](C)NC(=O)[C@@H]2C[C@@H](O)CN2C(=O)[C@@H](NC(=O)C2CCN(c3ccc(S(=O)(=O)NC(=O)c4nc(N5CCc6cccc(C(=O)Nc7nc8ccccc8s7)c6C5)ccc4-c4cnn(CC5CCCCC5)c4C)c(Cl)c3)CC2)C(C)(C)C)cc1 [I-276]
Dmax: > 75% | DC50: 10 to 100 nM

Cc1ncsc1-c1ccc([C@H](C)NC(=O)[C@@H]2C[C@@H](O)CN2C(=O)C(c2cc(N3CCC(CN4CCC(NC(=O)c5nc(N6CCc7cccc(C(=O)Nc8nc9ccccc9s8)c7C6)ccc5-c5cnn(CC6CCCCC6)c5C)CC4)CC3)no2)C(C)C)cc1 (some centres unmarked) [I-238]
Dmax: < 50%
